Like-named read-outs stand apart in the source and are kept apart here.
Assays:
intestinal polyps = assay: mouse model of adenomatous polyposis, prevention and treatment of intestinal polyps; assay type: in vivo; settings: COX 125 ppm in feed ad libitum
Procedure: (§1) 5-methyl-2-(2′-chloro-6′-fluoro-anilino)-phenyl acetic acid (“COX”) and (+)-discodermolide (“disco”) are tested as single agents and together as combination therapy in a mouse model of adenomatous polyposis for the prevention and treatment of intestinal polyps. (+)-Discodermolide is administered once intravenously to the mice at 15 mg/kg as a solution in 16.7% Chremophor EI, 8.3% ethanol, and 75% D5W. COX is administered in the feed mix at a concentration of 125 ppm.
(§2) 5-methyl-2-(2′-chloro-6′-fluoro-anilino)-phenyl acetic acid (“COX”) and (R)-4-(4-((1-phenylethyl)amino)-7H-pyrrolo(2,3-d)pyrimidin-6-yl)-phenol (“EGFR”) are tested as single agents and together as combination therapy in a mouse model of adenomatous polyposis for the prevention and treatment of intestinal polyps. EGFR is administered to the mice orally at 50 mg/kg, as a suspension in 0.5% carboxymethylcellulose, b.i.d., 5 days a week for three weeks. COX is administered in the feed mix at a concentration of 125 ppm.
(§3) 5-methyl-2-(2′-chloro-6′-fluoro-anilino)-phenyl acetic acid (“COX”) and 1-(4-chloroanilino)-4-(4-pyridylmethyl)phthalazine (“VEGFR”) are tested as single agents and together as combination therapy in a mouse model of adenomatous polyposis for the prevention and treatment of intestinal polyps. VEGFR is administered to the mice orally at 100 mg/kg, 5 times a week for three weeks. COX is administered in the feed mix at a concentration of 125 ppm.

[1] = tested on: DU 145 prostate tumor cell line; assay: mouse model of prostate cancer, efficacy against established tumors; assay type: in vivo; settings: Example 4; DU 145 prostate tumors in mice; COX 125 ppm in feed; VEGF 100 mg/kg p.o. q.d. 5x/week for three weeks
Procedure: (§4) 5-methyl-2-(2′-chloro-6′-fluoro-anilino)-phenyl acetic acid (“COX”) and 1-(4-chloroanilino)-4-(4-pyridylmethyl)phthalazine (“VEGFR”) are tested as single agents and together as combination therapy in a mouse model of prostrate cancer (orthoscopically implanted DU 145 prostate tumor cell line) for efficacy against established tumors. VEGFR is administered to the mice orally at 100 mg/kg, 5 times a week for three weeks, as a suspension in 0.5% microcrystalline cellulose, 0.1% Tween 80 in water. COX is administered in the feed mix at a concentration of 125 ppm.

[2] = COX 125 ppm in feed ad libitum
Procedure: as §1, §2, §3

[3] = Example 4; DU 145 prostate tumors in mice; COX 125 ppm in feed; VEGF 100 mg/kg p.o. q.d. 5x/week for three weeks
Procedure: as §4

[4] = tested on: tumor vascular permeability; settings: studies in humans; cited from earlier work
[5] = Example 1, first experiment, disco 15 mg/kg i.v. once
[6] = Example 1, second (duplicate) experiment, disco 15 mg/kg i.v. once
[7] = Example 2, first experiment, EGFR 50 mg/kg p.o. b.i.d. 5x/week for three weeks
[8] = Example 2, second (duplicate) experiment, EGFR 50 mg/kg p.o. b.i.d. 5x/week for three weeks
[9] = Example 3, first experiment, VEGF 100 mg/kg p.o. 5x/week for three weeks
[10] = Example 3, second (duplicate) experiment, VEGF 100 mg/kg p.o. 5x/week for three weeks

Cc1ccc(Nc2c(F)cccc2Cl)c(CC(=O)O)c1 [COX, 5-methyl-2-(2′-chloro-6′-fluoro-anilino)-phenyl acetic acid]
% T/C (polyps) (intestinal polyps; [5]): 56%
Mean Intestinal Polyp Count (# ± SEM) (intestinal polyps; [5]): 15 ± 0.4 #
% T/C (polyps) (intestinal polyps; [6]): 57%
Mean Intestinal Polyp Count (# ± SEM) (intestinal polyps; [6]): 13 ± 0.2 #
% T/C (polyps) (intestinal polyps; [7]): 43%
Mean Intestinal Polyp Count (# ± SEM) (intestinal polyps; [7]): 9 ± 0.4 #
% T/C (polyps) (intestinal polyps; [8]): 36%
Mean Intestinal Polyp Count (# ± SEM) (intestinal polyps; [8]): 12 ± 0.9 #
% T/C (polyps) (intestinal polyps; [9]): 44%
Mean Intestinal Polyp Count (# ± SEM) (intestinal polyps; [9]): 12 ± 0.22 #
% T/C (polyps) (intestinal polyps; [10]): 44%
Mean Intestinal Polyp Count (# ± SEM) (intestinal polyps; [10]): 13 ± 0.18 #
% T/C (tumors) [1]: 80%
Mean Tumor Weight (mg ± SEM) [1]: 343 ± 52 mg
Dead/Total [2, 5]: 0/7
Dead/Total [2, 6]: 0/7
Dead/Total [2, 7]: 0/7
Dead/Total [2, 8]: 0/7
Dead/Total [2, 9]: 0/7
Dead/Total [2, 10]: 0/7
Dead/Total [3]: 1/12

C[C@@H](Nc1ncnc2[nH]c(-c3ccc(O)cc3)cc12)c1ccccc1 [EGFR, (R)-4-(4-((1-phenylethyl)amino)-7H-pyrrolo(2,3-d)pyrimidin-6-yl)-phenol]
% T/C (polyps) (intestinal polyps; [7]): 37%
Mean Intestinal Polyp Count (# ± SEM) (intestinal polyps; [7]): 8 ± 0.2 #
% T/C (polyps) (intestinal polyps; [8]): 27%
Mean Intestinal Polyp Count (# ± SEM) (intestinal polyps; [8]): 9 ± 0.3 #
Dead/Total [2, 7]: 0/7
Dead/Total [2, 8]: 0/7

Clc1ccc(Nc2nnc(Cc3ccncc3)c3ccccc23)cc1 [VEGF, 1-(4-chloroanilino)-4-(4-pyridylmethyl)phthalazine]
% T/C (polyps) (intestinal polyps; [9]): 57%
Mean Intestinal Polyp Count (# ± SEM) (intestinal polyps; [9]): 15 ± 0.48 #
% T/C (polyps) (intestinal polyps; [10]): 60%
Mean Intestinal Polyp Count (# ± SEM) (intestinal polyps; [10]): 17 ± 0.19 #
% T/C (tumors) [1]: 57%
Mean Tumor Weight (mg ± SEM) [1]: 243 ± 37 mg
Dead/Total [2, 9]: 0/6
Dead/Total [2, 10]: 0/7
tolerability [4]: well tolerated
tumor vascular permeability [4]: reduce tumor vascular permeability
Dead/Total [3]: 1/12

(+)-discodermolide
% T/C (polyps) (intestinal polyps; [5]): 56%
Mean Intestinal Polyp Count (# ± SEM) (intestinal polyps; [5]): 15 ± 0.2 #
% T/C (polyps) (intestinal polyps; [6]): 64%
Mean Intestinal Polyp Count (# ± SEM) (intestinal polyps; [6]): 15 ± 0.22 #
% Body Wt. Change [2, 5]: +0.9 ± 0.1%
Dead/Total [2, 5]: 0/7
% Body Wt. Change [2, 6]: +4.0 ± 0.12%
Dead/Total [2, 6]: 0/7

Reference: US20110046190A1, “COMBINATIONS COMPRISING A SELECTIVE CYCLOOXYGENASE-2 INHIBITOR” (priority 2001, published 2011)
